Reference: ChEMBL document CHEMBL5352456, “Isocyanides in med chem: A scaffold hopping approach for the identification of novel 4-isocyanophenylamides as potent antibacterial agents against methicillin-resistant Staphylococcusaureus” (Eur J Med Chem, 2023)

How the values were obtained:
Type in all cases: functional
Details in all cases: time 16-20 hrs
Staphylococcus aureus [1] = test: Antibacterial activity against Staphylococcus aureus ATCC 6538 assessed as reduction in microbial growth measured for 16 to 20 hrs by microdilution assay
Klebsiella pneumoniae = test: Antibacterial activity against Klebsiella pneumoniae ATCC 700603 assessed as inhibition of bacterial growth measured for 16 to 20 hrs by microdilution assay
Escherichia coli = test: Antibacterial activity against Escherichia coli ATCC 25922 assessed as inhibition of bacterial growth measured for 16 to 20 hrs by microdilution assay
Staphylococcus aureus [2] = test: Antibacterial activity against Staphylococcus aureus ATCC 29213 assessed as reduction in microbial growth measured for 16 to 20 hrs by microdilution assay
Staphylococcus aureus [3] = test: Antibacterial activity against Staphylococcus aureus ATCC 25923 assessed as reduction in microbial growth measured for 16 to 20 hrs by microdilution assay
Pseudomonas aeruginosa = test: Antibacterial activity against Pseudomonas aeruginosa ATCC 10145 assessed as inhibition of bacterial growth measured for 16 to 20 hrs by microdilution assay

Row | SMILES | MIC (Staphylococcus aureus [1]) [µM] | MIC (Klebsiella pneumoniae) [µM] | MIC (Escherichia coli) [µM] | MIC (Staphylococcus aureus [2]) [µM] | MIC (Staphylococcus aureus [3]) [µM] | MIC (Pseudomonas aeruginosa) [µM]
1 | [C-]#[N+]c1ccc(NC(=O)c2ccc(OC)cc2)cc1 | > 8 | ≥ 64 | ≥ 64 | > 8 | > 8 | ≥ 64
2 | [C-]#[N+]c1ccc(NC(=O)c2ccc(C(=O)OC)cc2)cc1 | > 8 | ≥ 64 | ≥ 64 | > 8 | > 8 | ≥ 64
3 | N#Cc1ccc(NC(=O)COc2ccccc2)cc1 | > 8 | ≥ 64 | ≥ 64 | > 8 | > 8 | ≥ 64
4 | [C-]#[N+]c1ccc(NC(=O)Cc2ccccc2[N+](=O)[O-])cc1 | > 8 | ≥ 64 | ≥ 64 | > 8 | > 8 | ≥ 64
5 | [C-]#[N+]c1ccc(NC(=O)Cc2cc(OC)c(OC)c(OC)c2)cc1 | > 8 | ≥ 64 | ≥ 64 | > 8 | > 8 | ≥ 64
6 | [C-]#[N+]c1ccc(NC(=O)Cc2c[nH]c3ccccc23)cc1 | > 8 | ≥ 64 | ≥ 64 | > 8 | > 8 | ≥ 64
7 | [C-]#[N+]c1ccc(NC(=O)CC(C)C)cc1 | > 8 | ≥ 64 | ≥ 64 | > 8 | > 8 | ≥ 64
8 | [C-]#[N+]c1ccc(C(=O)Nc2ccccc2)cc1 | > 8 | ≥ 64 | ≥ 64 | > 8 | > 8 | ≥ 64
9 | [C-]#[N+]c1ccc(NC(=O)c2ccccc2C(F)(F)F)cc1 | > 8 | ≥ 64 | ≥ 64 | > 8 | > 8 | ≥ 64
10 | [C-]#[N+]c1ccc(NC(=O)c2ccccc2)cc1 | > 8 | ≥ 64 | ≥ 64 | > 8 | > 8 | ≥ 64
11 | N#Cc1ccc(NC(=O)Cc2ccccc2)cc1 | > 8 | ≥ 64 | ≥ 64 | > 8 | > 8 | ≥ 64
12 | [C-]#[N+]c1ccc(NC(=O)C(=O)c2ccccc2)cc1 | > 8 | ≥ 64 | ≥ 64 | > 8 | > 8 | ≥ 64
13 | [C-]#[N+]c1ccc(NC(=O)Cc2ccncc2)cc1 | > 8 | ≥ 64 | ≥ 64 | > 8 | > 8 | ≥ 64
14 | [C-]#[N+]c1ccc(NC(=O)CC2CCCCC2)cc1 | > 8 | ≥ 64 | ≥ 64 | > 8 | > 8 | ≥ 64
15 | [C-]#[N+]c1ccc(NC(=O)Cc2c(Cl)cccc2Cl)cc1 | > 8 | ≥ 64 | ≥ 64 | > 8 | > 8 | ≥ 64
16 | [C-]#[N+]c1ccc(NC(=O)Cc2ccccc2Cl)cc1 | > 8 | ≥ 64 | ≥ 64 | > 8 | > 8 | ≥ 64
17 | [C-]#[N+]c1ccc(NC(=O)CCc2cccnc2)cc1 | > 8 | ≥ 64 | ≥ 64 | > 8 | > 8 | ≥ 64
18 | [C-]#[N+]c1ccc(NC(=O)Cc2ccccc2OC)cc1 | > 8 | ≥ 64 | ≥ 64 | > 8 | > 8 | ≥ 64
19 | N#Cc1ccc(NC(=O)Cc2cccc(Cl)c2)cc1 | > 8 | ≥ 64 | ≥ 64 | > 8 | > 8 | ≥ 64
20 | [C-]#[N+]c1ccc(NC(=O)c2ccccc2[N+](=O)[O-])cc1 | > 8 | ≥ 64 | ≥ 64 | > 8 | > 8 | ≥ 64
